Drawing on US8586588B2, “Aryl pyridazinone derivatives and their use as H3 receptor ligands” (Cephalon, Inc., priority 2006, dated 2013), this text covers melting point and Ki for 32 compounds.

Where a name gives a salt, the structure may show the parent alone. Read-outs that look alike come from different tables or passages of the source. Some results are limits rather than exact numbers.

Data set [1] deals with T1, rat histamine H3 receptor (Rattus norvegicus, UniProt Q9QYN8).
T1 construct: encoding the entire 445-amino-acid rat histamine H3 receptor; expressed in transfected cells
In words: Rat H3 radioligand binding ([3H]-N-alpha-methylhistamine, CHO-A3 cell membranes, SPA). An outline of the steps:
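Scintillation proximity displacement of about 1 nM [3H]-N-alpha-methylhistamine, test compound 0.01 nM-30 μM, 4 h, room temperature, in the dark. Receptor source: rat H3 stably transfected into CHO-A3 cells, 10 μg membrane protein, Tris-HCl pH 7.4/MgCl2/BSA buffer. Nonspecific binding defined by 10 μM clobenpropit.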

The target in the next data set is T2, human H3 receptor (Homo sapiens, UniProt Q9Y5N1).
T2 construct: expressed in transfected cells
In words: Human H3 radioligand binding ([3H]-N-alpha-methylhistamine, CHO cell membranes, SPA). The note with it: binding constant as letter class. An outline of the steps:
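Scintillation proximity format: bead-proximal [3H]-N-alpha-methylhistamine (approximately 1 nM final) bound to human H3 receptor in CHO membranes was counted after 4 h at room temperature, light-protected. Buffer was pH 7.4 Tris/MgCl2/BSA; test compounds spanned 0.01 nM-30 μM; 10 μM clobenpropit set non-specific binding.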

The mark [2] stands for this setting: Table B, binding constant as letter class, read-out: rat H3 Ki.
The mark [3] stands for this setting: Table A, binding constant as letter class, read-out: Rat H3 Ki.

By melting point is commonly meant the temperature, or range, at which the solid turns liquid. A word on the Ki: it is a dissociation constant, usually derived from enzyme kinetics or from competition with a known ligand.

T2 sequence (Q9Y5N1 whole entry): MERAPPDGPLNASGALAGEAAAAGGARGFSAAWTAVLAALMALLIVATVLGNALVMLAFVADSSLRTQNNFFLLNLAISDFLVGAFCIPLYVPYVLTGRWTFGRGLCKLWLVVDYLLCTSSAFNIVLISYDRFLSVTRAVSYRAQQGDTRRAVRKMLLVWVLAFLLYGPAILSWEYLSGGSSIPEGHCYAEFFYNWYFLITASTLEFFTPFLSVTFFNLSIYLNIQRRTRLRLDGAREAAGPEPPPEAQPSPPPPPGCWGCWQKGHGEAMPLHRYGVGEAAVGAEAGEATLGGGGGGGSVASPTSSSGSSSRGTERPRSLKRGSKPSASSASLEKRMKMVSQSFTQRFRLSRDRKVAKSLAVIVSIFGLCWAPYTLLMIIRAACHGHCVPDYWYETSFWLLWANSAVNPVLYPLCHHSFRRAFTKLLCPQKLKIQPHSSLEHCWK
T1 sequence (Q9QYN8 whole entry): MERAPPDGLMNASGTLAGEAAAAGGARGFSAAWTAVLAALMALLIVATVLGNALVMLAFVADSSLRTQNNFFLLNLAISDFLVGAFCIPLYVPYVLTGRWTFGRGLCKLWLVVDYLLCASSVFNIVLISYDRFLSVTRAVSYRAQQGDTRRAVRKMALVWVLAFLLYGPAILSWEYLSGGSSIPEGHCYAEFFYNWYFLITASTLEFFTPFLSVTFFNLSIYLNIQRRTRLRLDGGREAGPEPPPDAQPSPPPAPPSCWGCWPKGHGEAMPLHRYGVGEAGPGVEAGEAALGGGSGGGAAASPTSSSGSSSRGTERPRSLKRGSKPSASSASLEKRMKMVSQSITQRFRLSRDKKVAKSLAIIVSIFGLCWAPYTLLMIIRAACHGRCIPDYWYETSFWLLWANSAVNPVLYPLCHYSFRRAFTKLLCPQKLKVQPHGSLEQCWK

`Cc1n[nH]c(=O)cc1-c1ccc(OC2CCN(C3CCC3)CC2)cc1` (as salt: HCl) [Example 103, 5-[4-(1-Cyclobutyl-piperidin-4-yloxy)-phenyl]-6-methyl-2H-pyridazin-3-one] showed a melting point of 296 to 297 °C. As for `Cc1cc(OCCCN2CCC[C@H]2C)ccc1C1=NNC(=O)CC1` (as salt: HCl) [Example 199, 6-{(R)-2-Methyl-4-[3-(2-methyl-pyrrolidin-1-yl)-propoxy]-phenyl}-4,5-dihydro-2H-pyridazin-3-one], the melting point was in the range of 121 to 123 °C. With `O=C1C2CC2C(c2ccc(OC3CCN(C4CCC4)CC3)cc2)=NN1c1ccc(F)cc1` (stereo not shown) (as salt: HCl) [Example 253, 5-[4-(1-Cyclobutyl-piperidin-4-yloxy)-phenyl]-3-(4-fluoro-phenyl)-3,4-diaza-bicyclo[4.1.0]hept-4-en-2-one], the melting point lay within 147 to 149 °C. As to `Cc1cc(OCCCN2CCC[C@H]2C)ccc1-c1cn[nH]c(=O)c1` (as salt: HCl) [Example 231, 5-{2-methyl-4-[3-((R)-2-methyl-pyrrolidin-1-yl)-propoxyl]-phenyl}-2H-pyridazin-3-one], the melting point was in the range of 186 to 188 °C. Compound `CC1CC(c2ccc(OC3CCN(C4CCC4)CC3)cc2)=NNC1=O` (stereo not shown) (as salt: HCl) [Example 116, 6-[4-(1-Cyclobutyl-piperidin-4-yloxy)-phenyl]-4-methyl-4,5-dihydro-2H-pyridazin-3-one] yielded a melting point of 257 to 259 °C. In turn, `O=C1C2CC2C(c2ccc(OC3CCN(C4CCC4)CC3)cc2)=NN1CC(F)(F)F` (stereo not shown) (as salt: HCl) [Example 254, 5-[4-(1-Cyclobutyl-piperidin-4-yloxy)-phenyl]-3-(2,2,2-trifluoro-ethyl)-3,4-diaza-bicyclo[4.1.0]hept-4-en-2-one] came in with a melting point of 110 to 121 °C. For `C[C@@H]1CCCN1CCCOc1ccc(-c2ccc(=O)n(C)n2)cc1Cl` [Example 85, 6-{3-Chloro-4-[3-((R)-2-methyl-pyrrolidin-1-yl)-propoxy]-phenyl}-2-methyl-2H-pyridazin-3-one], the Ki (in data set [1] (setting [2]); at human H3 receptor (Table B)) was 0.1 to 100 nM in each case. Regarding `Cn1nc(-c2ccc(OCCCN3CCCCC3)cc2)c(-c2ccccc2)cc1=O` [Example 48, 2-Methyl-5-phenyl-6-[4-(3-piperidin-1-yl-propoxy)-phenyl]-2H-pyridazin-3-one], the inhibitory constant (Ki) (in data set [1] (setting [3]); on human H3 receptor (Table A)) was 0.1 to 100 nM each time. Regarding `Cc1onc2c(=O)[nH]nc(-c3ccc(OC4CCNCC4)cc3)c12` [Example 206, 3-methyl-4-[4-(piperidin-4-yloxy)phenyl]-6h-isoxazolo-[3,4-d]pyridazin-7-one TFA salt], the Ki (in data set [1] (setting [2]); on human H3 receptor (Table B)) was greater than 1000 nM each time.

For the compound `Cc1cccnc1-n1ncc(-c2ccc(OCCCN3CCC[C@H]3C)cc2)cc1=O` [Example 99, 2-(3-Methyl-pyridin-2-yl)-5-{4-[3-((R)-2-methylpyrrolidin-1-yl)-propoxy]-phenyl}-2H-pyridazin-3-one], the inhibitory constant (Ki) (in data set [1] (setting [2]); at human H3 receptor (Table B)) was 0.1 to 100 nM each time. For `Cc1nn(-c2ccccn2)c(=O)cc1-c1ccc(OCCCN2CCC[C@H]2C)cc1` [Example 100, 6-Methyl-5-{4-[3-((R)-2-methyl-pyrrolidin-1-yl)-propoxy]-phenyl}-2-pyridin-2-yl-2H-pyridazin-3-one], the Ki (in data set [1] (setting [2]); at human H3 receptor (Table B)) was 0.1 to 100 nM each time. Take `Cn1nc(-c2ccc(OCC3CCN(C4CCC4)CC3)cc2)ccc1=O` [Example 67, 6-[4-(1-Cyclobutyl-piperidin-4-ylmethoxy)-phenyl]-2-methyl-2H-pyridazin-3-one]: the Ki was greater than 1000 nM in data set [1] (setting [3]) and 101 to 500 nM at human H3 receptor (Table A). Turning to `Cc1n[nH]c(=O)cc1-c1ccc(OCCCN2CCCCC2)cc1` [Example 89, 6-Methyl-5-[4-(3-piperidin-1-yl-propoxy)-phenyl]-2H-pyridazin-3-one], the inhibition constant Ki (in data set [1] (setting [2]); on human H3 receptor (Table B)) was 0.1 to 100 nM each time. Regarding `Cc1n[nH]c(=O)cc1-c1ccc(OCCCN2CCCCCC2)cc1` [Example 90, 5-[4-(3-Azepan-1-yl-propoxy)-phenyl]-6-methyl-2H-pyridazin-3-one], the Ki was 5 nM in data set [1] (Table B, cell prints a number instead of a letter, read-out: rat H3 Ki) and 0.1 to 100 nM at human H3 receptor (Table B). With `C[C@@H]1CCCN1CCCOc1ccc(C2=NNC(=O)CC2c2ccccn2)cc1` (stereo partly drawn) [Example 111, 6-{4-[3-((R)-2-Methyl-pyrrolidin-1-yl)-propoxy]-phenyl}-5-pyridin-2-yl-4,5-dihydro-2H-pyridazin-3-one], the Ki (in data set [1] (setting [2]); on human H3 receptor (Table B)) was 0.1 to 100 nM each time.

Regarding `CN1N=C(c2ccc(OC3CCN(C4CCCC4)CC3)cc2)C2CC2C1=O` (stereo not shown) [Example 260, 5-[4-(1-Cyclopentyl-piperidin-4-yloxy)-phenyl]-3-methyl-3,4-diaza-bicyclo[4.1.0]hept-4-en-2-one], the Ki (in data set [1] (setting [2]); on human H3 receptor (Table B)) was 0.1 to 100 nM throughout. For the compound `O=c1ccc(-c2ccc(OC3CCN(C4CCC4)CC3)nc2)nn1-c1ccccn1` [Example 149, 6-[6-(1-Cyclobutyl-piperidin-4-yloxy)-pyridin-3-yl]-2-pyridin-2-yl-2H-pyridazin-3-one], the Ki (in data set [1] (setting [2]); at human H3 receptor (Table B)) was 0.1 to 100 nM throughout. With `C[C@@H](COc1ccc(-c2ccc(=O)n(C)n2)cc1)CN1CCC[C@H]1C` [Example 82, 2-Methyl-6-{4-[(R)-2-methyl-3-((R)-2-methyl-pyrrolidin-1-yl)-propoxy]-phenyl}-2H-pyridazin-3-one], the Ki (in data set [1] (setting [2]); at human H3 receptor (Table B)) was 0.1 to 100 nM throughout.

As to `COc1cc(OCCCN2CCC[C@H]2C)ccc1-c1ccc(=O)[nH]n1` [Example 213, 6-{2-Methoxy-4-[3-((R)-2-methyl-pyrrolidin-1-yl)-propoxy]-phenyl}-2H-pyridazin-3-one], the Ki (in data set [1] (setting [2]); at human H3 receptor (Table B)) was 101 to 500 nM each time. Consider `Cn1nc(-c2ccc(OCCCN3CCCCCC3)cc2)c2ccccc2c1=O` [Example 53, 4-[4-(3-Azepan-1-yl-propoxy)-phenyl]-2-methyl-2H-phthalazin-1-one], for which the Ki (in data set [1] (setting [3]); at human H3 receptor (Table A)) was 0.1 to 100 nM throughout. Regarding `CC1CC(=O)NN=C1c1ccc(OCCCN2CCCCC2)cc1` (racemic) [Example 197, 5-Methyl-6-[4-(3-piperidin-1-yl-propoxy)-phenyl]-4,5-dihydro-2H-pyridazin-3-one], the Ki (in data set [1] (setting [2]); at human H3 receptor (Table B)) was 0.1 to 100 nM each time.

In the case of `COCn1ncc(-c2ccc(OCCCN3CCCCC3)cc2C)cc1=O` [Example 232, 2-Methoxymethyl-5-[2-methyl-4-(3-piperidin-1-yl-propoxy)-phenyl]-2H-pyridazin-3-one], the Ki (in data set [1] (setting [2]); at human H3 receptor (Table B)) was 0.1 to 100 nM each time. For the compound `CC(C)n1nc(-c2ccc(OCCCN3CCC[C@H]3C)cc2)ccc1=O` [Example 5, 2-Isopropyl-6-{4-[3-((R)-2-methyl-pyrrolidin-1-yl)-propoxy]-phenyl}-2H-pyridazin-3-one], the Ki (in data set [1] (setting [3]); at human H3 receptor (Table A)) was 0.1 to 100 nM each time.

On to `Cc1cc(-c2ccc(OCCCN3CCCCC3)cc2)nn(C(C)C)c1=O` [Example 42, 2-Isopropyl-4-methyl-6-[4-(3-piperidin-1-yl-propoxy)-phenyl]-2H-pyridazin-3-one], for which the Ki (in data set [1] (setting [3]); at human H3 receptor (Table A)) was 101 to 500 nM in each case. In the case of `Cn1nc(-c2ccc(OCC3CCN(C4CCCC4)CC3)cc2)ccc1=O` [Example 70, 6-[4-(1-Cyclopentyl-piperidin-4-ylmethoxy)-phenyl]-2-methyl-2H-pyridazin-3-one], the Ki (in data set [1] (setting [3]); at human H3 receptor (Table A)) was 101 to 500 nM throughout. Consider `O=c1ccc(-c2ccccc2)nn1-c1ccc(OC2CCN(C3CCC3)CC2)nc1` [Example 203, 2-[6-(1-Cyclobutyl-piperidin-4-yloxy)-pyridin-3-yl]-6-phenyl-2H-pyridazin-3-one], for which the Ki (in data set [1] (setting [2]); on human H3 receptor (Table B)) was 0.1 to 100 nM throughout. As for `O=c1ccc(-c2ccc(OC3CCN(C4CCCC4)CC3)nc2)n[nH]1` [Example 139, 6-[6-(1-Cyclopentyl-piperidin-4-yloxy)-pyridin-3-yl]-2H-pyridazin-3-one], the Ki (in data set [1] (setting [2]); on human H3 receptor (Table B)) was 0.1 to 100 nM throughout.

In the case of `C[C@@H]1CCCN1CCCOc1ccc2c(c1)CCc1cc(=O)n(C)nc1-2` [Example 75, 2-Methyl-8-[3-((R)-2-methyl-pyrrolidin-1-yl)-propoxy]-5,6-dihydro-2H-benzo[h]cinnolin-3-one], the Ki (in data set [1] (setting [3]); at human H3 receptor (Table A)) was 0.1 to 100 nM in each case. With `CC(C)n1nc(-c2ccc(OCCCN3CCCC3)cc2)c2sccc2c1=O` [Example 29, 5-Isopropyl-7-[4-(3-pyrrolidin-1-yl-propoxy)-phenyl]-5H-thieno[2,3-d]-pyridazin-4-one], the Ki (in data set [1] (setting [3]); on human H3 receptor (Table A)) was 0.1 to 100 nM in each case. As for `COCn1ncc(-c2ccc(OCCCN3CCC[C@H]3C)cc2C)cc1=O` [Example 230, 2-Methoxymethyl-5-{2-methyl-4-[3-((R)-2-methyl-pyrrolidin-1-yl)-propoxyl]-phenyl}-2H-pyridazin-3-one], the Ki (in data set [1] (setting [2]); at human H3 receptor (Table B)) was 0.1 to 100 nM throughout.

For `Cc1cc(-c2ccc(OCCCN3CCCCC3)cc2)n[nH]c1=O` [Example 123, 4-Methyl-6-[4-(3-piperidin-1-yl-propoxy)-phenyl]-2H-pyridazin-3-one], the Ki (in data set [1] (setting [2]); at human H3 receptor (Table B)) was 0.1 to 100 nM in each case.

For `O=c1cc(-c2ccc(OC3CCN(C4CCC4)CC3)cc2)cn[nH]1` [Example 106, 5-[4-(1-Cyclobutyl-piperidin-4-yloxy)-phenyl]-2H-pyridazin-3-one], the inhibition constant Ki (in data set [1] (setting [2]); at human H3 receptor (Table B)) was 0.1 to 100 nM throughout.
